Active and inactive are the calls of the source.
How the values were obtained:
[1] = NIH-3T3 fibroblast cytotoxicity, dose response, cytotoxicity control, cell-based, fluorescence, Alamar Blue, secondary assay (AID 2327); format: functional;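 also: NIH-3T3 mouse fibroblasts cultured with fluconazole at 8 µg/mL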
[2] = tested on: Streptococcus sp. 'group A'; test: growth inhibition of control SK(-) GAS strain, dose response, counter-screen for streptokinase expression inhibitor project, luminescence, kanamycin, BacTiterGlo, confirmation (AID 1900); format: functional, organism-based
cells [3] = format: functional, cell-based
[4] = molecular target: T1, Heat shock factor protein 1 (Mus musculus, UniProt P38532); test: inhibition of MG132-induced HSE-luciferase signal, confirmation, cell-based, NIH3T3, luminescence, dose retest (AID 2382); format: functional;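 also: NIH3T3 fibroblasts with HSF1-driven luciferase reporter stressed by proteasome inhibitor MG132; luminescence from HSF1-driven luciferase expression after 8 hours of MG132 stress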
T1 sequence (P38532 whole entry): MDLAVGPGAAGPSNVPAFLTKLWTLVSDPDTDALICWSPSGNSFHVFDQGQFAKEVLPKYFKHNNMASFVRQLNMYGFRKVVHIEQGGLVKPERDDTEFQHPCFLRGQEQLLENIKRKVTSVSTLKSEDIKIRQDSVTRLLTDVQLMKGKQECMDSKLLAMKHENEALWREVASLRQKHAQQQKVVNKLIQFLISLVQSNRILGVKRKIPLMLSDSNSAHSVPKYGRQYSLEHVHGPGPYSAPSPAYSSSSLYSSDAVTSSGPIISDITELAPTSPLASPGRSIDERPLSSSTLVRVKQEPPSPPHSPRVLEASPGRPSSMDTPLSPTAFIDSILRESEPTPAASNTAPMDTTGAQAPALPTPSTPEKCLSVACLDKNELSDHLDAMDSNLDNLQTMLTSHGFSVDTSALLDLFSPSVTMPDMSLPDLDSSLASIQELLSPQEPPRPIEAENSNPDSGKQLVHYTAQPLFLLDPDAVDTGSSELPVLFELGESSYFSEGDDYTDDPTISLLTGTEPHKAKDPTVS

[5] = C. albicans growth with fluconazole, confirmation, fluorescence, retest (AID 2467); format: functional, cell-based
cells [6] = format: functional, cell-based; remark: listed apart in the source
Streptococcus = test: Group A Streptococcus viability loss, dose response, counter-screen for streptokinase expression inhibitor project, luminescence, BacTiterGlo (AID 1915); format: functional, organism-based;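 also: potency for reduction of bacterial viability or growth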
Nonstructural protein 1 = Nonstructural protein 1 (Influenza A virus, UniProt Q194T2); format: functional, Influenza A virus (A/California/07/2009(H1N1))
[7] = molecular target: Heat shock protein HSP 90-alpha (Homo sapiens, UniProt P07900); format: functional, organism-based
Vero = test: cells; format: functional; settings: Chlorocebus sabaeus
Caspase-6 = molecular target: T2, Caspase-6 (Homo sapiens, UniProt P55212); test: human caspase-6 inhibitors, dose response, biochemical, VEID-R110 fluorescence, cherry-pick (AID 720632)
T2 sequence (P55212 whole entry): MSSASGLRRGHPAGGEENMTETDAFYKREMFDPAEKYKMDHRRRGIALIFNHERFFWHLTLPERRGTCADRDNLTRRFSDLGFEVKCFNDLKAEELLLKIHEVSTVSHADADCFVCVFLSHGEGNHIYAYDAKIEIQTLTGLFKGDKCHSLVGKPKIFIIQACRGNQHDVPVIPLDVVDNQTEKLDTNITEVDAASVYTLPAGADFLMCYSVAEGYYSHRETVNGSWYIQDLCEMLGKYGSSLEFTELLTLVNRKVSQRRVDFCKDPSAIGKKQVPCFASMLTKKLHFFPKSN

[8] = molecular target: T3, Histone-lysine N-methyltransferase NSD2 (Homo sapiens, UniProt O96028); format: biochemical
T3 sequence (O96028 whole entry): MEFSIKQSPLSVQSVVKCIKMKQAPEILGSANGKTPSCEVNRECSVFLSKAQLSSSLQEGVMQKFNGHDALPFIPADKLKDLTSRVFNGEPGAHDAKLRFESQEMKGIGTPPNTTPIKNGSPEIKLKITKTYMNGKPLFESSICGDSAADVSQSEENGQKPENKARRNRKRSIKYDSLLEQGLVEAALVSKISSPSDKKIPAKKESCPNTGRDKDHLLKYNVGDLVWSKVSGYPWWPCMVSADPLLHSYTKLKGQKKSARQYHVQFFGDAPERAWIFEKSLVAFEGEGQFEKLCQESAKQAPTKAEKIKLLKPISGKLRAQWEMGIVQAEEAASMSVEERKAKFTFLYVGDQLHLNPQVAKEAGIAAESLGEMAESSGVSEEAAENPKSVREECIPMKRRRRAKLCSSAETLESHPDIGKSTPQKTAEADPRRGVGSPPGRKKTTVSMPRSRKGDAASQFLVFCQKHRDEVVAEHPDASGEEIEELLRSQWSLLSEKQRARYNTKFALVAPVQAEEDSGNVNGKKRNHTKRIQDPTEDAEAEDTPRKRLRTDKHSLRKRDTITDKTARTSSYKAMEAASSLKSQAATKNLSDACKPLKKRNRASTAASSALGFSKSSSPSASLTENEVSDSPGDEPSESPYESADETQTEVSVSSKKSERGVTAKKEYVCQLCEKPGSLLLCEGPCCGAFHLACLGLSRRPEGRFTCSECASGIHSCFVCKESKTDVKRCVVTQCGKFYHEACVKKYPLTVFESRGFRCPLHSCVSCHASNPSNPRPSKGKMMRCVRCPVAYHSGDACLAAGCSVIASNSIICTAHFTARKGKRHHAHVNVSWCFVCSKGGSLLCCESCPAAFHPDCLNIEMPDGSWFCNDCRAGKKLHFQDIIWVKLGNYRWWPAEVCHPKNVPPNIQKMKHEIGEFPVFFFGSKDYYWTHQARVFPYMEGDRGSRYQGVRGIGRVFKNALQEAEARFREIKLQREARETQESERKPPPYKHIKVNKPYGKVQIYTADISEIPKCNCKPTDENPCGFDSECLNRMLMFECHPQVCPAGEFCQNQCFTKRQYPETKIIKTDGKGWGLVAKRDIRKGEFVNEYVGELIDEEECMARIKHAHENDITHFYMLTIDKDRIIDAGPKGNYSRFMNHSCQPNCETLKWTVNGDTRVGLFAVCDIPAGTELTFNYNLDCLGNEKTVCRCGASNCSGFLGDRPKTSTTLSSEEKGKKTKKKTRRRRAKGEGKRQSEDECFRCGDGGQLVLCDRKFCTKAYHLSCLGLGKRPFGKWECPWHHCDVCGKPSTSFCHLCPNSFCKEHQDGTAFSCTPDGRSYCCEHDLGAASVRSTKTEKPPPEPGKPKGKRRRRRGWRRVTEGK

[9] = inhibitors of PGC1a acetylation in cells, dose response, cell-based, cherry-picked samples (AID 720514); format: functional;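 also: potency may reflect raised or lowered acetylation signal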
[10] = miR-122 activators in hepatoma reporter cells, dose response, cell-based, Huh7 psiCHECK-miR122, Renilla luciferase, cherry-picked (AID 651956); format: functional;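 also: huh7 hepatoma cells stably carrying a psiCHECK-2 miR-122 sensor plasmid; renilla luciferase signal reporting endogenous miR-122 activity after 48 h compound exposure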
[11] = HEK293T cytotoxicity, dose response, cytotoxicity control for miR-122 modulator project, cell-based, inhibitor set, cherry-pick, set 2 (AID 720697); format: functional
[12] = Shn3 3'UTR reporter inhibitors, dose response, cell-based, Clone20 osteoblasts, firefly luciferase, cherry-picked (AID 624132); format: functional;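 also: firefly luciferase luminescence from reporter carrying the Shn3 3'UTR in osteoblasts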
[13] = HepG2 cell cytotoxicity, dose response, cytotoxicity control for Shn3 inhibitor project, CellTiter-Glo, cherry-picked (AID 624134); format: functional, cell-based
[14] = control 3'UTR Renilla luciferase suppression, dose response, counter-screen for Shn3 inhibitor project, cell-based, Clone20-Shn3RL, cherry-picked (AID 624133); format: functional
[15] = Fluorescence-based cell-based high throughput dose response assay for inhibitors of the interaction of nucleotide-binding oligomerization domain containing 2 (NOD2) and the receptor-interacting serine-threonine kinase 2 (RIPK2).; format: functional, Homo sapiens; settings: Homo sapiens
[16] = HeLa cell cytotoxicity, dose response, cytotoxicity control for MgcRacGAP inhibitor project (AID 624300); format: functional
[17] = molecular target: T4, Rac GTPase-activating protein 1 (Homo sapiens, UniProt Q9H0H5); test: MgcRacGAP GTPase-activating activity inhibitors, confirmation, biochemical, ADP Hunter fluorescence, primary and confirmatory (AID 624330); format: functional
T4 sequence (Q9H0H5 whole entry): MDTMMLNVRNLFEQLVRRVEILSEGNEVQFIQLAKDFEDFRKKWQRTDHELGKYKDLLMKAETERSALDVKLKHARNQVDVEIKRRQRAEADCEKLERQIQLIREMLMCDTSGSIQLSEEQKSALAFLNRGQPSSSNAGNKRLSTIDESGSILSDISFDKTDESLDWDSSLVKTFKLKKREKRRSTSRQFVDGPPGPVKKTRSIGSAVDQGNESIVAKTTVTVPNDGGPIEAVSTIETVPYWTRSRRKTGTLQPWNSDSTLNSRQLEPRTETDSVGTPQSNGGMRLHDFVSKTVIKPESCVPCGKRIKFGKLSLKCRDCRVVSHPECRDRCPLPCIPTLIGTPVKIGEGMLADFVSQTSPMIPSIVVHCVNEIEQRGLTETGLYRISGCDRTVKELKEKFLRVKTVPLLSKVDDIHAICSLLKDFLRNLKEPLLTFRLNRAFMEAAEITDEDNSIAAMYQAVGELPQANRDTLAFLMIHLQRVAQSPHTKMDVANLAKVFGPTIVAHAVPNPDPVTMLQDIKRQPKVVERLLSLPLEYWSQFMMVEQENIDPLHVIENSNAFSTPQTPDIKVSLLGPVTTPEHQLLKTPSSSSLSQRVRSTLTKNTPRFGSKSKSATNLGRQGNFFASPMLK

Paired box protein Pax-8 = Paired box protein Pax-8 (Homo sapiens, UniProt Q06710); test: inhibitors of PAX8-driven TPO luciferase reporter, dose response, RMG-I cells, cherry-pick (AID 687027); format: functional, cell-based;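 also: luciferase reporter driven by Pax8 target thyroperoxidase promoter measured by SteadyGlo luminescence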
[18] = A549 cell cytotoxicity, dose response, cytotoxicity control, plate reader, cherry-pick, antagonist series (AID 743412); format: functional, cell-based
[19] = HepG2 cell cytotoxicity, dose response, cytotoxicity control, plate reader, cherry-pick, antagonist series (AID 743416); format: functional, cell-based
[20] = LGR2 antagonists, dose response, cell-based, HEK293, CRE-luciferase reporter, cherry pick, set 2 (AID 743343); format: functional;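 also: transfected cells were stimulated with diluted bursicon conditioned medium after compound addition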
[21] = MC4R antagonists, dose response, counter-screen for LGR2 antagonist project, cell-based, plate reader, cherry pick (AID 743444); format: functional;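 also: transfected HEK 293 cells stimulated with alpha-MSH peptide; potency of inhibitors of the alpha-MSH evoked signal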
[22] = HEK293 cell cytotoxicity, dose response, cytotoxicity control, plate reader, cherry-picked samples (AID 743446); format: functional, cell-based
[23] = T. cruzi growth inhibition in host cells, dose response, cell-based, plate reader, dry powder, set 2 (AID 652275); format: functional
Protein Tat = molecular target: T5, Protein Tat (Human immunodeficiency virus type 1 group M subtype B (isolate HXB2)(HIV-1), UniProt P04608); format: functional;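 also: tat binding to TAR RNA read out by fluorescence polarization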
T5 sequence (P04608 whole entry): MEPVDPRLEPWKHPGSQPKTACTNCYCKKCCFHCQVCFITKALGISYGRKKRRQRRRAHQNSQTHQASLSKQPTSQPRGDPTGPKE

[24] = inhibitors of HIV Env-driven cell fusion, dose response, cherry-pick (AID 652057); format: functional, cell-based
[25] = CEM21 lymphoblast cell cytotoxicity, dose response, cytotoxicity control for viral fusion inhibitor project, CellTiter-Glo luminescence, cherry-picked (AID 652042); format: functional, cell-based;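 also: potency for signal decrease meaning cytotoxicity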
[26] = ZM109 Env clade C HIV-1 fusion inhibitors, dose response, HeLa effector, CEM target cells, luciferase, cherry-pick (AID 652058); format: functional, cell-based
P388/ADR = test: cells; format: functional; settings: Mus musculus
SN12K1 = test: cells; format: functional; settings: Homo sapiens
P388 = test: cells; format: functional; settings: Mus musculus

Chain of Paired box protein Pax-8 (Q06710 whole entry): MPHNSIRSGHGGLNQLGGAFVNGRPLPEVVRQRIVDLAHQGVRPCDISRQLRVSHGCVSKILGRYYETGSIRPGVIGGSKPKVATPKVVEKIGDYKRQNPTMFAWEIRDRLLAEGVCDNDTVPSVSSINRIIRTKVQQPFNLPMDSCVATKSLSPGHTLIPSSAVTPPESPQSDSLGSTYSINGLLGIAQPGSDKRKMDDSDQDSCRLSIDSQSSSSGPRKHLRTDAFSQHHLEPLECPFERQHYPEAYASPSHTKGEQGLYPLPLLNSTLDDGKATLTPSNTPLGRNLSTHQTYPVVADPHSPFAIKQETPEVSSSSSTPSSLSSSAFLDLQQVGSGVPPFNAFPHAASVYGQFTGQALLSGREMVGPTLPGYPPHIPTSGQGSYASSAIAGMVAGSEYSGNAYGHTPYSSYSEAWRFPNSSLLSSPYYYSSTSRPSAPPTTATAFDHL
Chain of Nonstructural protein 1 (Q194T2 whole entry): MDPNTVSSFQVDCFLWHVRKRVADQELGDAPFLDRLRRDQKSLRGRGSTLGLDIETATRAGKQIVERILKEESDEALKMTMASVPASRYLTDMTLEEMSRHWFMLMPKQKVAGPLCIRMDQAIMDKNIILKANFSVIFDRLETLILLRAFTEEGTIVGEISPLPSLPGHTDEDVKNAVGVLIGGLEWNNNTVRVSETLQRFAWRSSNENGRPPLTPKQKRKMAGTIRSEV

Compound: COc1ccccc1N=Nc1ccc(O)c2ncccc12
- EC50 [1]: > 160 µM (inactive)
- EC50 [2]: 1.17 µM (active)
- EC50 (cells [3]): 102 µM (active)
- EC50 [4]: 2.29 µM (active)
- EC50 [5]: 1.28 µM (active)
- EC50 (cells [6]): 38.7 µM (active)
- EC50 (Streptococcus): 10.3 µM (active)
- IC50 (Nonstructural protein 1): 12.4 µM (active)
- AC50 [7]: 3.68 µM (active)
- CC50 (Vero): 12.2 µM (active)
- AC50 (Caspase-6): 34.5 µM (active)
- AC50 [8]: 11.8 µM (active)

Compound: O=C(CSc1nc2cc(Cl)ccc2s1)NCC1CCCO1 (stereo unspecified)
- AC50 [9]: 30.5 µM (active)

Compound: C[C@@H]1CCCCO[C@H](CN(C)CC2CCCCC2)[C@H](C)CN([C@H](C)CO)C(=O)c2cc(NC(=O)Nc3ccc4c(c3)OCO4)ccc2O1
- AC50 [10]: 16.2 µM (active)
- AC50 [11]: 4.39 µM (active)

Compound: CCC1CN2CCc3cc(OC)c(OC)cc3C2CC1CC1NCCc2c1[nH]c1ccc(O)cc21 (stereo unspecified)
- AC50 [12]: < 0.26 µM (active)
- AC50 [13]: 18 µM (active)
- AC50 [14]: 0.658 µM (active)
- IC50 [15]: 49.8 µM (inactive)
- CC50 [16]: 1.61 µM (active)
- IC50 [17]: 70.2 µM (active)
- AC50 (Paired box protein Pax-8): < 0.26 µM (active)
- AC50 [9]: 0.471 µM (active)
- AC50 [18]: 0.075 µM (active)
- AC50 [19]: 0.601 µM (active)
- AC50 [20]: 0.219 µM (active)
- AC50 [21]: 0.209 µM (active)
- AC50 [22]: 0.153 µM (active)

Compound: CC(C)(C)[S@+]([O-])N1Cc2cc(C(=O)NCc3ccc4c(c3)OCO4)nc(-c3cccc(-c4ccncc4)c3)c2[C@@H]1CCO
- AC50 [23]: 0.152 µM (active)

Compound: CCOc1ccc2[nH]c(=O)c(CN(Cc3ccco3)C(=O)c3ccc(Br)cc3)cc2c1
- IC50 (Protein Tat): > 100 µM (active)

Compound: C[C@H]1CN([C@@H](C)CO)C(=O)c2cccc(NC(=O)c3ccncc3)c2O[C@@H]1CN(C)Cc1ccc(Cl)cc1
- AC50 [23]: 0.00712 µM (active)

Compound: COc1cccc(CN2C[C@@H]3N[C@H](C2)[C@@H]3c2ccc(-c3ccccc3OC)cc2)c1
- AC50 [9]: 28.5 µM (active)

Compound: CCOC(=O)[C@]12CCC=C1N(Cc1ccc3c(c1)OCO3)C(=O)[C@H](CC(=O)NCC13CC4CC(CC(C4)C1)C3)C2
- AC50 [24]: 16.5 µM (active)
- AC50 [25]: 34 µM (active)
- AC50 [26]: 22.7 µM (active)

Compound: [O-][n+]1c2c([n+]([O-])c3cc(Br)ccc31)CCC2
- IC50 (Protein Tat): 8.44 µM (inconclusive)

Compound: COC1C(O)C(C)OC(OC2C(Oc3cccc4c(O)c5c(=O)oc6ccc(C)c7c(=O)oc(c34)c5c67)OC(C)C(O)C2O)C1O (stereo unspecified)
- GI50 (P388/ADR): 7.08 µM (inactive)
- GI50 (SN12K1): 0.593 µM (active)
- GI50 (P388): 0.598 µM (active)
- AC50 [8]: > 20 µM (inactive)

Compound: CC(C)(C)[S+]([O-])N1Cc2cc(C(=O)NCc3ccc4c(c3)OCO4)nc(-c3cccc(C#CCC4CCCC4)c3)c2[C@H]1CCO (stereo partly specified)
- AC50 [23]: 1.01 µM (active)
